Measurements taken from patent US6841089B2, “Detoxification of onium compounds” (Baker Hughes Incorporated, priority 2001, dated 2005).

Columns and labels:
Assay type in all cases: physicochemical
[1] = Quat removal from brine: additive without heptane, oil layer separated, water layer washed with heptane (Examples 5-6); conditions: same brine/quat solution, 90 ml; 0.45 g p-TSA or 0.74 g naphthenic acids; shaken 1 minute without heptane; water layer washed with 10 ml heptane
Experimental: In a second set of tests, a 90 ml sample of the above water, sodium chloride and quat solution was dosed with 0.45 g of para-toluenesulfonic acid (p-TSA) or 0.74 g of a mixture of naphthenic acids (as indicated). In this test, the mixture was shaken 1 minute by hand in the absence of heptane. The samples were centrifuged. An oil layer separated and remained at the top of the samples. The slightly hazy water layer was removed. The water layer was washed with 10 ml of heptane and again centrifuged. The clear water layer was analyzed for quat.

[2] = Quat removal from 16% sodium chloride brine suspension (Examples 7-8); conditions: brine of 84 g water and 16 g sodium chloride with 1.52 g quat solution, used as suspension; 90 ml; 0.45 g p-TSA or 0.74 g naphthenic acids
Experimental: In a third set of tests, a brine solution comprising 84 g of water and 16 g of sodium chloride was dosed with 1.52 g of the above quat solution. In this case, the quat separates to some extent from the brine on standing and was used immediately in the next step as a suspension. A 90 ml sample of this suspension was dosed with 0.45 g of p-TSA or 0.74 g of a mixture of naphthenic acids (as indicated). The samples were treated as above and analyzed for quat.

[3] = Quat removal from brine: additive, then heptane extraction, water layer analyzed for quat (Examples 1-4); conditions: brine of 97.50 g water and 2.50 μg sodium chloride dosed with 1.52 g methanolic quat solution; 90 ml sample; 1.00 g DDBSA or 0.90 g oleic acid; shaken 1 minute with 10 ml heptane; centrifuged
Experimental: A brine solution comprising 97.50 g of water and […] of sodium chloride was dosed with 1.52 g of a methanolic solution of a quat (solution contains 33% methanol and 67% RE 4136 quaternary ammonium compound available from Baker Petrolite). A 90 ml sample of the water, sodium chloride, quat solution was shaken by hand for 1 minute with 10 ml of heptane. The mixture is centrifuged to separate the layers and the water layer was analyzed for quat. The above test was repeated but in this case the sample was dosed with 1.00 g of dodecylbenzenesulfonic acid (DDBSA) or 0.90 g of oleic acid (as indicated) before the addition of heptane and shaken by hand. These two cases required prolonged centrifugation to separate the phases. Again, the water phase was analyzed for quat. The quat concentration is expressed in ppm of methanolic quat solution.

ppm of methanolic quat solution in water [1] | ppm of methanolic quat solution in water [2] | ppm of methanolic quat solution in water [3] | Structure (SMILES)
178 ppm | 88 ppm |  | Cc1ccc(S(=O)(=O)O)cc1 [p-TSA, para-toluenesulfonic acid]
 |  | 15,000 ppm | CCCCCCC [Heptane only, heptane]
 |  | 76 ppm | CCCCCCCCCCCCc1ccc(S(=O)(=O)O)cc1 [DDBSA, dodecylbenzenesulfonic acid]
 |  | 121 ppm | CCCCCCCC/C=C\CCCCCCCC(=O)O [Oleic acid, oleic acid]
